target: Dihydrofolate reductase (Rattus norvegicus) (UniProt Q920D2)

Compound	log(1/C)
Nc1nc(O)c2cc(S(=O)(=O)c3ccc4ccccc4c3)ccc2n1	7.96
Cc1c(NC(=O)C(Sc2ccc3ccccc3c2)C(C)C)ccc2nc(N)nc(N)c12 (stereo unspecified)	7.68
O=c1[nH]cnc2ccccc12	3.62
Nc1nc(N)c2c(Cl)c(NC(=O)Cc3cccc(C(F)(F)F)c3)ccc2n1	7.64
Nc1nc(N)c2c(CCc3ccc4ccccc4c3)cccc2n1	7.7
Nc1nc(N)c2c(S(=O)(=O)c3ccc4ccccc4c3)cccc2n1	4.82
Nc1nc(N)c2cc(CNC(=O)c3cccc(C(F)(F)F)c3)ccc2n1	6.59
Nc1nc(N)c2c(Sc3ccc4ccccc4c3)cccc2n1	6.92
Nc1nc(O)c2cc(Sc3ccc4ccccc4c3)ccc2n1	7.35
CC(=O)Nc1nc(O)c2cc(S(=O)(=O)c3ccc4ccccc4c3)ccc2n1	6.11
Cc1cccc2nc(N)nc(O)c12	4.8
Nc1nc(O)c2cc(S(=O)(=O)c3ccc(Cl)c(Cl)c3)ccc2n1	7.12
Nc1nc(N)c2cc(NC(=O)Cc3ccc4ccccc4c3)ccc2n1	8.3
Nc1nc(N)c2cc(NCc3ccc(Cl)c(Cl)c3)ccc2n1	7.74
Nc1nc(O)c2cc(Sc3ccc(Cl)c(Cl)c3)ccc2n1	6.92
Cc1c(NC(=O)CSc2ccc3ccccc3c2)ccc2nc(N)nc(N)c12	8.27
Nc1nc(O)c2cc([S+]([O-])c3ccc4ccccc4c3)ccc2n1 (stereo unspecified)	7.38
Cc1ccc2nc(N)nc(N)c2c1	5.66
Nc1nc(N)c2c(Cl)c(NC(=O)COc3ccc(Cl)c(Cl)c3)ccc2n1	7.64
Nc1nc(N)c2c(Cl)c(NC(=O)Cc3ccc4ccccc4c3)ccc2n1	8.3

Compound	log(1/C)
Nc1nc(O)c2c(n1)CCCC2	3.96
Nc1nc(N)c2c(Cl)c(NC(=O)CCc3ccc(Cl)cc3)ccc2n1	7.44
Nc1nc(N)c2c(/C=C/c3ccc4ccccc4c3)cccc2n1	5.28
O=c1[nH]c(=O)c2cc(Sc3ccc4ccccc4c3)ccc2[nH]1	5.07
Nc1nc(N)c2c(Cl)c(Br)ccc2n1	7
Nc1ncnc2ccccc12	3.09
CC1CCc2nc(N)nc(O)c2C1 (stereo unspecified)	4.26
Nc1ncnc2ccc(S(=O)(=O)c3ccc4ccccc4c3)cc12	5.47
Nc1nc(O)nc2ccc(Sc3ccc4ccccc4c3)cc12	5.77
Cc1c(NC(=O)Cc2ccc(Br)cc2)ccc2nc(N)nc(N)c12	7.49
Nc1nc(S)c2cc(S(=O)(=O)c3ccc4ccccc4c3)ccc2n1	7.6
Nc1nc(N)c2cc(NC(=O)Cc3ccc(Cl)c(Cl)c3)ccc2n1	7.51
Nc1nc(S)c2cc(Sc3ccc4ccccc4c3)ccc2n1	6.64
CC(C(=O)Nc1ccc2nc(N)nc(N)c2c1Cl)c1ccccc1 (stereo unspecified)	7.77
Sc1nc(S)c2cc(Sc3ccc4ccccc4c3)ccc2n1	5.05
Nc1nc(N)c2c(Cl)c(NC(=O)Cc3cccc(Br)c3)ccc2n1	8.12
Cc1ccc2nc(N)nc(O)c2c1	4.44
Nc1nc(N)c2cc(C=O)ccc2n1	5
Oc1nc(S)nc2ccc(Sc3ccc4ccccc4c3)cc12	5

Now from value to compound:

log(1/C)	Compound
7.7	Nc1nc(N)c2c(CSc3ccc(Cl)cc3)cccc2n1
7.85	Nc1nc(N)c2c(Cl)c(NC(=O)COc3ccc4ccccc4c3)ccc2n1
8.15	Nc1nc(N)c2cc([S+]([O-])c3ccc4ccccc4c3)ccc2n1 (stereo unspecified)
7.48	Cc1c(NC(=O)CCc2ccc(Cl)cc2)ccc2nc(N)nc(N)c12
4.24	Nc1nc(N)c2c(S(=O)(=O)c3ccc(Cl)c(Cl)c3)cccc2n1
8.38	Cc1c(NC(=O)Cc2ccc3ccccc3c2)ccc2nc(N)nc(N)c12
6.09	Cc1cccc2nc(N)nc(N)c12
7.64	Nc1nc(N)c2cc(NC(=O)Cc3ccc(Cl)cc3)ccc2n1
7	Nc1nc(N)c2cc(CNC(=O)c3ccc(Cl)c(Cl)c3)ccc2n1
7.33	Nc1nc(N)c2cc(NC(=O)CCc3ccc(Cl)cc3)ccc2n1
7.47	Cc1c(NC(=O)Cc2cccc(Br)c2)ccc2nc(N)nc(N)c12
7.62	Nc1nc(N)c2c(Cl)c(NC(=O)Cc3ccc(Cl)c(Cl)c3)ccc2n1
4.68	Nc1ncnc2ccc(Sc3ccc4ccccc4c3)cc12
4.82	Nc1ncnc2ccc([S+]([O-])c3ccc4ccccc4c3)cc12 (stereo unspecified)
6.25	Nc1nc(N)c2c(Cl)cccc2n1
6.8	Nc1nc(N)c2c(Sc3ccc(Cl)c(Cl)c3)cccc2n1
6.15	Nc1nc(O)c2c(Sc3ccc4ccccc4c3)cccc2n1
8.15	Nc1nc(N)c2cc(Sc3ccc4ccccc4c3)ccc2n1
7	Nc1nc(N)c2cc(CNC(=O)c3ccc4ccccc4c3)ccc2n1
4.31	Nc1nc2ccccc2c(=O)[nH]1
7.02	Nc1nc(N)c2cc(NC(=O)Cc3cccc(C(F)(F)F)c3)ccc2n1
4.66	Nc1nc(O)c2c(Cl)cccc2n1
7.92	Nc1nc(N)c2c(Cl)c(NC(=O)Cc3ccc(Cl)cc3)ccc2n1
4.26	Nc1nc(N)c2c([S+]([O-])c3ccc(Cl)c(Cl)c3)cccc2n1 (stereo unspecified)

log(1/C)	Compound
4.35	Nc1nc(N)c2c([S+]([O-])c3ccc4ccccc4c3)cccc2n1 (stereo unspecified)
5.52	Nc1nc(S)nc2ccc(Sc3ccc4ccccc4c3)cc12
7.96	Nc1nc(N)c2cc(Sc3ccc(Cl)c(Cl)c3)ccc2n1
7.82	Cc1c(NC(=O)COc2ccc3ccccc3c2)ccc2nc(N)nc(N)c12
4.57	Nc1ccc2nc(N)nc(N)c2c1
7.77	Cc1c(NC(=O)Cc2ccc(Cl)c(Cl)c2)ccc2nc(N)nc(N)c12
5.13	Nc1nc(N)c2c(n1)CCCC2
3.72	Nc1nc(S)nc2ccccc12
8.05	Nc1nc(N)c2cc(S(=O)(=O)c3ccc(Cl)c(Cl)c3)ccc2n1
6.18	Nc1nc(N)c2c(Cl)c(N)ccc2n1
4.02	Nc1nc(O)nc2ccccc12
5.03	NCc1ccc2nc(N)nc(N)c2c1
4.28	CC(=O)Nc1nc(O)c2ccccc2n1
7.23	Cc1c(NC(=O)Cc2cccc(C(F)(F)F)c2)ccc2nc(N)nc(N)c12
4.35	Nc1nc(O)c2ccc(C(F)(F)F)cc2n1
8.4	Nc1nc(N)c2cc(S(=O)(=O)c3ccc4ccccc4c3)ccc2n1
4.85	Nc1nc(O)c2c(S(=O)(=O)c3ccc4ccccc4c3)cccc2n1
2.26	c1ccc2ncncc2c1
6.52	Nc1nc(N)c2c(/C=C\c3ccc4ccccc4c3)cccc2n1
5.4	Nc1nc(N)c2cc(Cl)ccc2n1
5.24	O=c1[nH]c(=S)c2cc(Sc3ccc4ccccc4c3)ccc2[nH]1
4.37	Nc1nc(S)c2ccccc2n1
7.44	Nc1nc(N)c2cc(Sc3cccc(C(F)(F)F)c3)ccc2n1
